The values that follow come from patent US20240091358A1, “[…] REGULATION” (Senti Biosciences, Inc., priority 2021, published 2024).

The test system of one data set is Hep3B cells. Description: Nanoluciferase activity (Promega Nanoglo) in Hep3B cells transduced with AAV2/AAV8 nanoluciferase-degron constructs, with or without IMiD (Example 5). The class given is cell-based. The settings on record: for luciferase activity relative to cells not treated / minimal effective dose in vitro: Hep3B cells transduced with AAV2 construct; for luciferase activity relative to cells not treated: 1-0.01 μM drug, all concentrations tested; for minimal effective dose in vitro: concentration that may be approaching the minimal effective dose; for Fold change relative to no drug: decrease in nanoluciferase activity, Hep3B cells transduced with AAV2 nanoluciferase/degron construct. The method, then: AAV2 and AAV8 viral vector constructs were generated that expressed nanoluciferase as a chimeric protein fused to a C-terminal degron using an A(EAAK)3A linker (SEQ ID NO: 193). Constructs were generated using packaging vectors with either AAV2 or AAV8 capsid protein.
Luciferase activity was assessed following the general protocol below: • Day 0: Hep3b cells were plated at 50,000 cells per well in a 96 well plate • Day 1: 1e6 vg/cell AAV2 or 3e6 vg/cell AAV8 was added to cells in presence or absence of 1 μM Lenalidomide (or 1 μM-0.01 μM Lenalidomide or Pomalidomide) • Day 3: Cells were lysed and luciferase activity was measured with Promega Nanoglo kit

The next data set concerns donor-derived T cells. Description: hIL-10 secretion from donor T cells by Luminex assay, normalized to hIL-12 (Example 4). The class given is cell-based. The settings on record: for % 1 uM Len of no drug (IL10/IL12 ratio) / Mean IL10/IL12 ratio (1 uM Len) / Mean IL10/IL12 ratio (no drug): donor T cell supernatant; for % 1 uM Len of no drug (IL10/IL12 ratio): 1 uM lenalidomide relative to no drug; for Mean IL10/IL12 ratio (1 uM Len): 1 uM lenalidomide; for Mean IL10/IL12 ratio (1 uM Len) / Mean IL10/IL12 ratio (no drug): hIL-10 normalized to hIL-12. The method, then:
The viral vectors also expressed human IL-12 (hIL-12) from a separate promoter as a normalization control for cell number, viability, and transduction efficiency.
Cytokine secretion was assessed following the general protocol below: • Day 0: Donor T cells (enriched as previously described above) were thawed and activated with CD3/CD28 Dynabeads • Day 1: T cells were transduced with viral constructs (100 k GoStix values per 1e6 cells) • Day 2: Media was changed • Day 4: Cells were passaged • Day 7: Cells were spun down, washed 3× with media, then resuspended in media+/−1 μM Lenalidomide • Day 9: Supernatants were harvested and were evaluated for hIL10 and hIL12 concentration by Luminex assay

Turning to `Nc1cccc2c1CN(C1CCC(=O)NC1=O)C2=O` (stereo not drawn) [lenalidomide], the “luciferase activity relative to cells not treated” value in the data set on Hep3B cells is listed as “significant decreases in luciferase activity”. The “minimal effective dose in vitro” value in the data set on Hep3B cells was approximately 0.01 µM. The “Fold change relative to no drug” value in the data set on Hep3B cells (drug dose 0.01 uM) came out at 6 fold; in the data set on Hep3B cells (drug dose 0.05 uM), 18 fold; in the data set on Hep3B cells (drug dose 0.1 uM) it was 25 fold; in the data set on Hep3B cells (drug dose 0.5 uM), 35 fold; in the data set with Hep3B cells (drug dose 1 uM), 60 fold.

Turning to `Nc1cccc2c1C(=O)N(C1CCC(=O)NC1=O)C2=O` (stereo not drawn) [pomalidomide], in the data set on Hep3B cells, the “luciferase activity relative to cells not treated” value was “significant decreases in luciferase activity”. In addition, in the data set with Hep3B cells, the “minimal effective dose in vitro” value was approximately 0.01 µM. Moreover, the “Fold change relative to no drug” value in the data set with Hep3B cells (drug dose 0.01 uM) is 4 fold; with Hep3B cells (drug dose 0.05 uM), 12 fold; with Hep3B cells (drug dose 0.1 uM), 19 fold; in the data set on Hep3B cells (drug dose 0.5 uM), 18 fold; in the data set with Hep3B cells (drug dose 1 uM), 19 fold.

B1: Construct 1584: SFFV promoter-hIL-10; minTK-hIL-12 (opposite direction); native hIL-10 without a degron; SEQ ID NO: 186 (nucleic acid)
DNA: CCGATAAAATAAAAGATTTTATTTAGTCTCCAGAAAAAGGGGGGAATGAAAGACCCCACCTGTAGGTTTGGCAAGCTAGCTGCAGTAACGCCATTTTGCAAGGCATGGAAAAATACCAAACCAAGAATAGAGAAGTTCAGATCAAGGGCGGGTACATGAAAATAGCTAACGTTGGGCCAAACAGGATATCTGCGGTGAGCAGTTTCGGCCCCGGCCCGGGGCCAAGAACAGATGGTCACCGCAGTTTCGGCCCCGGCCCGAGGCCAAGAACAGATGGTCCCCAGATATGGCCCAACCCTCAGCAGTTTCTTAAGACCCATCAGATGTTTCCAGGCTCCCCCAAGGACCTGAAATGACCCTGCGCCTTATTTGAATTAACCAATCAGCCTGCTTCTCGCTTCTGTTCGCGCGCTTCTGCTTCCCGAGCTCTATAAAAGAGCTCACAACCCCTCACTCGGCGCGCCAGTCCTCCGACAGACTGAGTCGCCCGGGGGGGATCTGGAGCTCTCGAGAATTCATGCACTCATCTGCTCTCCTTTGCTGTCTCGTGCTCCTGACTGGAGTACGCGCGTCACCCGGTCAAGGGACACAAAGCGAAAACTCCTGTACGCATTTTCCGGGCAACCTCCCTAATATGCTTCGCGACTTGCGAGATGCATTTTCCAGGGTGAAGACCTTCTTCCAGATGAAGGACCAGTTGGATAATCTTCTCCTCAAGGAGTCTCTTTTGGAGGACTTCAAGGGCTACCTGGGATGTCAAGCCCTTAGCGAAATGATTCAGTTTTATCTTGAAGAGGTCATGCCGCAAGCTGAGAACCAGGACCCCGACATAAAAGCCCATGTGAACTCCCTCGGCGAGAATTTGAAGACGCTGAGACTTAGATTGAGAAGATGTCATAGATTTCTCCCATGTGAGAATAAGTCCAAGGCTGTCGAGCAGGTTAAGAATGCTTTCAATAAGTTGCAGGAAAAAGGAATCTATAAGGCAATGAGCGAGTTTGACATCTTTATTAACTACATTGAGGCTTATATGACTATGAAAATTAGAAACTAA
modifications: misc_feature 1..1054 Description of Artificial Sequence: Synthetic polynucleotide
For the molecule B1, in the data set with donor-derived T cells, the “% 1 uM Len of no drug (IL10/IL12 ratio)” value came out at 131%, the “Mean IL10/IL12 ratio (1 uM Len)” value was 4.09 and the “Mean IL10/IL12 ratio (no drug)” value is listed as 3.11. Moreover, the “hIL-10 secretion upon addition of lenalidomide” value in the data set on donor-derived T cells (donor-derived T cells, 1 μM lenalidomide) is “did not result in reduced secretion”.

B2: Construct 1585: SFFV promoter-hIL-10-ADAM10/17 cleavage site-PDGFRb TM-A(EAAAK)3A-d913 degron; minTK-hIL-12 (opposite direction); SEQ ID NO: 187 (nucleic acid)
DNA: CCGATAAAATAAAAGATTTTATTTAGTCTCCAGAAAAAGGGGGGAATGAAAGACCCCACCTGTAGGTTTGGCAAGCTAGCTGCAGTAACGCCATTTTGCAAGGCATGGAAAAATACCAAACCAAGAATAGAGAAGTTCAGATCAAGGGCGGGTACATGAAAATAGCTAACGTTGGGCCAAACAGGATATCTGCGGTGAGCAGTTTCGGCCCCGGCCCGGGGCCAAGAACAGATGGTCACCGCAGTTTCGGCCCCGGCCCGAGGCCAAGAACAGATGGTCCCCAGATATGGCCCAACCCTCAGCAGTTTCTTAAGACCCATCAGATGTTTCCAGGCTCCCCCAAGGACCTGAAATGACCCTGCGCCTTATTTGAATTAACCAATCAGCCTGCTTCTCGCTTCTGTTCGCGCGCTTCTGCTTCCCGAGCTCTATAAAAGAGCTCACAACCCCTCACTCGGCGCGCCAGTCCTCCGACAGACTGAGTCGCCCGGGGGGGATCTGGAGCTCTCGAGAATTCATGCACTCATCTGCTCTCCTTTGCTGTCTCGTGCTCCTGACTGGAGTACGCGCGTCACCCGGTCAAGGGACACAAAGCGAAAACTCCTGTACGCATTTTCCGGGCAACCTCCCTAATATGCTTCGCGACTTGCGAGATGCATTTTCCAGGGTGAAGACCTTCTTCCAGATGAAGGACCAGTTGGATAATCTTCTCCTCAAGGAGTCTCTTTTGGAGGACTTCAAGGGCTACCTGGGATGTCAAGCCCTTAGCGAAATGATTCAGTTTTATCTTGAAGAGGTCATGCCGCAAGCTGAGAACCAGGACCCCGACATAAAAGCCCATGTGAACTCCCTCGGCGAGAATTTGAAGACGCTGAGACTTAGATTGAGAAGATGTCATAGATTTCTCCCATGTGAGAATAAGTCCAAGGCTGTCGAGCAGGTTAAGAATGCTTTCAATAAGTTGCAGGAAAAAGGAATCTATAAGGCAATGAGCGAGTTTGACATCTTTATTAACTACATTGAGGCTTATATGA
modifications: misc_feature 1..1034 Description of Artificial Sequence: Synthetic polynucleotide
In the case of B2, in the data set on donor-derived T cells, the “% 1 uM Len of no drug (IL10/IL12 ratio)” value is 56%, the “Mean IL10/IL12 ratio (1 uM Len)” value is 1.65 and the “Mean IL10/IL12 ratio (no drug)” value came to 2.97.
